From patent US20230067910A1, “NOVEL COMPOUNDS FOR THE DIAGNOSIS, TREATMENT AND PREVENTION OF DISEASES ASSOCIATED WITH THE AGGREGATION OF ALPHA-SYNUCLEIN” (MODAG GMBH, priority 2019, published 2023)
Like-named read-outs stand apart in the source and are kept apart here.

Tests used:
[1] = molecular target: T1, aggregated alpha-synuclein (Homo sapiens, UniProt P37840); test: Autoradiography using human brain tissue (dementia with Lewy bodies); format: binding
T1 construct: made in house; host or cells: E. coli
Procedure: Autoradiography was performed on histological slices of frozen brain tissue using tritiated compound 1 and brain tissue derived from the cingulate gyrus of a patient with dementia with Lewy bodies.

[2] = molecular target: T2, alpha-synuclein (sonicated fibrils) (Homo sapiens, UniProt P37840); test: Modified competition binding assay, protocol 3b, reference ligand [3H]-compound 1; conditions: reference ligand [3H]-compound 1 (1 nM)
T2 construct: made in house; host or cells: E. coli
Procedure: Fibrils were prepared by aggregation of recombinant protein via constant agitation. In detail, 70 μM of alpha-synuclein mixed with 100 mM NaCl in 50 mM Tris, pH 7.0+0.02% NaN3 were incubated at 1,400 rpm, 37° C. for 96 h. 10 μM of tau46 were incubated with 0.03 mg/ml heparin in 50 mM Tris, pH=7.0 at 1,000 rpm, 37° C. for 72 h.
Plates were incubated for 4.5 hours at RT covered by removable sealing tape (PerkinElmer, Waltham, Mass., USA).
Filtration and readout were performed as described for saturation binding assays.
The fibril competition assay provides Ki values. […] This assay is suitable for a screening of non-radioactive ligands.

tau46 (fibrils) = molecular target: T3, tau46 (fibrils) (Homo sapiens, UniProt P10636); test: Competition binding assay, protocol 3a, reference ligand [3H]-compound 1, tau46 fibrils; conditions: Experiment B, reference ligand [3H]-compound 1 (1 nM)
T3 construct: made in house; host or cells: E. coli
Procedure: Alpha-synuclein and tau46 were purified from E. coli according to established protocols (Nuscher B, et al., J. Biol. Chem., 2004; 279(21):21966-75), Aβ1-42 was obtained from rPeptide, Watkinsville, Ga., USA. Fibrils were prepared by aggregation of recombinant protein via constant agitation. In detail, 70 μM of alpha-synuclein mixed with 100 mM NaCl in 50 mM Tris, pH 7.0+0.02% NaN3 were incubated at 1,400 rpm, 37° C. for 96 h. 10 μM of tau46 were incubated with 0.03 mg/ml heparin in 50 mM Tris, pH=7.0 at 1,000 rpm, 37° C. for 72 h. Aβ1-42 was solved in 20 mM NaPi, pH=8.0+0.2 mM EDTA+0.02% NaN3 (Deeg A A, et al., Biochim. Biophys. Acta, 2015; 1850(9): 1884-90; Goedert M, et al. Nature, 1996; 383(6600): 550-3).
A fixed concentration of sonicated human recombinant αSYN (200 nM/well) or tau46 (208 nM/well) fibrils diluted in phosphate buffered saline (PBS) were incubated in low binding plates (96 well micro test plate, Ratiolab GmbH, Dreieich, Germany) together with 1 nM [^3H]-compound 1 and 1:4 serial dilutions of the cold compound of interest starting from 1 μM diluted in 50 mM Tris-base, 10% EtOH, 0.05% Tween20, pH 7.4. For the calculation of Ki values the KD value of compound 1 toward sonicated human recombinant αSYN fibrils was set to 3 nM.
Assay plates were incubated under agitation at 37° C. for 2 h covered by plastic foil (Resealable tape, PerkinElmer, Waltham, Mass., USA). Prior to harvesting, a filter (Printed filtermat B, PerkinElmer, Waltham, Mass., USA) was incubated with 5 mg/mL polyethylenimine (PEI, Poly(ethyleneimine) solution, Sigma Aldrich Chemie GmbH, Taufkirchen, Germany) at 4° C. for 30 min. After incubation, bound and free ligands were separated by vacuum filtration using a harvester (Filtermate harvester, PerkinElmer, Waltham, Mass., USA). The filter was washed three times with buffer cooled to 4° C. and subsequently dried in the microwave for 2 min at medium power. The filter was sealed in a plastic bag (Sample bag for MicroBeta®, PerkinElmer, Waltham, Mass., USA) together with added scintillator (BETAPLATE SCINT, PerkinElmer, Waltham, Mass., USA). Accumulation of tritium was counted in a liquid scintillation counter (Wallac MicroBeta® TriLux, 1450 LSC & Luminescence Counter, PerkinElmer, Waltham, Mass., USA) immediately. Radioactivity was plotted against the increasing tritium-labeled compound or cold compound concentrations. Data points were fitted using nonlinear regression analysis in GraphPad Prism (GraphPad Software, Inc., Version 7.03, La Jolla, Calif., USA).
The fibril competition assay provides Ki values. Ki is a quantitative measure that represents the concentration of the non-radioactive tested compound (competitor ligand) required to replace 50% of a reference compound, in this case [H]-compound 1 (1 nM) or [H]-compound 2 (1 nM), which is bound to the target structures (1 nM), in our case recombinant alpha-synuclein and tau46 fibrils. This assay is suitable for a screening of non-radioactive ligands.

T3 sequence (P10636 1-412 isoform P10636-7): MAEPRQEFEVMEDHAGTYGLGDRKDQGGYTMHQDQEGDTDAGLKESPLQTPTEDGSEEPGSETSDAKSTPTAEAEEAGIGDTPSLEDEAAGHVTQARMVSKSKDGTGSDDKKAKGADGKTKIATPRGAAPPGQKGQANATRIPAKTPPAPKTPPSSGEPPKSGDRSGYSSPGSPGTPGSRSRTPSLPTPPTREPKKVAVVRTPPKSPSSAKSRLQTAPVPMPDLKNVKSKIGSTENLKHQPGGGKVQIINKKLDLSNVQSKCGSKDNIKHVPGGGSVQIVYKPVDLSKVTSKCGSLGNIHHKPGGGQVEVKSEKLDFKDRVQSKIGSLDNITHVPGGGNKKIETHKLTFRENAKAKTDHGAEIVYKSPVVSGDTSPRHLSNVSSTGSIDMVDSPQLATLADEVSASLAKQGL

Row | SMILES | Autoradiography binding pattern ([1]; [3H]-compound 1 at 3 nM, cingulate gyrus, patient with dementia with Lewy bodies) | Unspecific binding to brain tissue ([1]; specific binding blocked by excess of non-tritiated compound 1) | Ki ([2]; Table 6 comparison series, read-out: Ki (nM), sonicated alpha-synuclein fibrils) | Ki (tau46 (fibrils)) | Ki ([2]; Table 4b, read-out: Ki (nM) alpha-synuclein (sonicated fibrils))
1 | CN(C)c1ccc(-c2cc(-c3ccnc(Br)c3)[nH]n2)cc1 [Compound 1, 4-[3-(4-dimethylamino-phenyl)-1H-pyrazol-5-yl]-2-bromopyridine] | preferential binding to the gray matter | no to very low unspecific binding | 0.4 nM |  | 
2 | CNc1ccc(-c2cc(-c3ccnc(Br)c3)[nH]n2)cc1 [Compound 2, 4-[5-(2-bromopyridin-4-yl)-1H-pyrazol-3-yl]-N-methylaniline] |  |  |  | 9 nM | 0.3 nM
